Measured values published in patent US20230295152A1 (SENDA BIOSCIENCES, INC., priority 2019, published 2023).
Values after ≈ are worked out from the molar mass of the structure shown. Like-named read-outs stand apart in the source and are kept apart here.

What was measured:
[1] = Solubility Determination Assay in PBS pH 1.6 and pH 7.4; format: physicochemical; conditions: PBS buffer, aqueous buffer, kinetic from dmso stock
Procedure, shortened: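 Compounds from 10 mM DMSO stock diluted into PBS pH 1.6 or pH 7.4 (15 μL into 485 μL), stirred 2 hours, then filtered. Filtrate quantified by LC-MS/MS against a standard of known concentration with internal standard; single determination.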

[2] = Hepatocyte Stability Assay, human; format: in vitro ADME; conditions: cryopreserved hepatocytes in suspension; human hepatocytes; read-out: Human hepatocyte clearance
Protocol: • Preparation of working solutions: 10 mM stock solutions of test compound and positive control were prepared in DMSO. In separate conical tubes, the 10 mM solution of test compound and the positive control were diluted to 100 μM by combining 198 μL of 50% acetonitrile/50% water and 2 μL of 10 mM stock.
Preparation of Hepatocytes: Incubation medium (William's E Medium supplemented with GlutaMAX) and hepatocyte thawing medium were placed in a 37° C. water bath and allowed warming for at least 15 minutes prior to use. A vial of cryopreserved hepatocytes was transferred from storage, ensuring that vials remained at cryogenic temperatures until thawing process ensued. Cells were thawed by placing the vial in a 37° C. water bath and gently shaking the vials for 2 minutes. After thawing was completed, vial was sprayed with 70% ethanol and transferred to a biosafety cabinet. Wide-bore pipette tip were used to transfer hepatocytes into 50 mL conical tube containing thawing medium. The 50 mL conical tube were placed into a centrifuge and spun at 100 g for 10 minutes. Upon completion of spin, thawing medium was aspirated and resuspended hepatocytes in enough incubation medium to yield ˜1.5×10^6 cells/mL. Using an AO/PI Staining, cells were counted and the viable cell density was determined. Cells with poor viability (<75% viability) were determined to be not acceptable for use. Cells were diluted with incubation medium to a working cell density of 0.5×10^6 viable cells/mL.
Procedure for Stability Determination: 198 μL of hepatocytes were pipetted into each wells of a 96-well non-coated plate. The plate was placed in the incubator to allow the hepatocytes to warm for 10 minutes. 2 μL of the 100 μM test compound or positive control solutions were pipetted into respective wells of the 96-well non-coated plate to start the reaction. The plate was returned to the incubator for the designed time points. Well contents was transferred in 25 μL aliquots at time points of 0, 15, 30, 60, 90 and 120 minutes. The aliquots were then mixed with 6 volumes (150 μL) of acetonitrile containing internal standard, IS (100 nM alprazolam, 200 nM caffeine and 100 nM tolbutamide) to terminate the reaction. The mixture was vortex for 5 minutes. Samples were centrifuged for 45 minutes at 3,220 g. An aliquot of 100 μL of the supernatant was diluted by 100 μL ultra-pure water, and the mixture was used for LC/MS/MS analysis. All incubations were performed in duplicate.
Data Analysis: All calculations were carried out using Microsoft Excel. Peak areas were determined from extracted ion chromatograms. In vitro half-life (t1/2) of parent compound was determined by regression analysis of the percent parent disappearance vs. time curve.
The in vitro half-life (in vitro t1/2) was determined from the slope value:
Conversion of the in vitro t1/2 (in min) into the in vitro intrinsic clearance (in vitro CLint, in μL/min/1×10^6 cells) was done using the following equation (mean of duplicate determinations):
V=incubation volume(0.2 mL);
N=number of hepatocytes per well(0.1×10^6 cells).
“+++” indicates a CLint value less than 20 mL/min/Kg, “++” indicates a CLint between 20 and 50 mL/min/Kg, and “+” indicates an CLint above 50 mL/min/Kg.

[3] = PBS pH 1.6, 25° C., read-out: Aq. Solubility at pH = 1.6
[4] = PBS pH 7.4, 25° C., read-out: Aq. Solubility at pH = 7.4

SMILES	solubility at 2 h [1, 3] [µM]	solubility at 2 h [1, 4] [µM]	CLint scaled at 1 μM [2] [mL/min/kg]
C[C@@H](CO)n1cnc2c(-c3cnsc3)nc(-c3ccc(Cl)cc3)cc2c1=O [Compound 58]	< 0.1	< 0.1	< 20
Cn1cc(-c2nc(-c3ccc(C(F)(F)F)nc3)cc3c(=O)n(CC(C)(C)O)cnc23)cn1 [Compound 60]	≥ 1	≥ 1	< 20
C[C@@H](CO)n1cnc2c(-c3cccnc3)nc(-c3cnc(C4CC4)s3)cc2c1=O [Compound 66]	≥ 1	≥ 1	20 to 50
C[C@@H](CO)n1cnc2c(-c3cnn(C)c3)nc(-c3ccc(C(F)(F)F)nc3)cc2c1=O [Compound 68]	≥ 1	≥ 1	< 20
C[C@@H](CO)n1cnc2c(-c3cccnc3)nc(-c3ccc(C4CC4)nc3)cc2c1=O [Compound 74]	≥ 1	≥ 1	< 20
O=c1c2cc(-c3ccc(C(F)(F)F)nc3)nc(-c3cccnc3)c2ncn1[C@@H]1COC[C@H]1O [Compound 79]	≥ 1	≥ 1	< 20
CC(C)(O)Cn1cnc2c(-c3cccnc3)nc(-c3ccc(C4CC4)nc3)cc2c1=O [Compound 81]	≥ 1	≥ 1	< 20
Cn1cc(-c2nc(-c3ccc(C4CC4)nc3)cc3c(=O)n(CC(C)(C)O)cnc23)cn1 [Compound 82]	≥ 1	≥ 1	< 20
C[C@@H](CO)n1cnc2c(-c3cnn(C)c3)nc(-c3ccc(C4CC4)nc3)cc2c1=O [Compound 83]	≥ 1	≥ 1	< 20
C[C@@H](CO)n1cnc2c(-c3cccnc3)nc(-c3cnc(C(F)(F)F)s3)cc2c1=O [Compound 85]	≥ 1	≥ 1	< 20
C[C@@H](CO)n1cnc2c(-c3cccnc3)nc(-c3cnc(C(F)(F)F)nc3)cc2c1=O [Compound 86]	≥ 1	≥ 1	< 20
Cn1cc(-c2nc(-c3ccc(C(F)(F)F)nc3)cc3c(=O)n([C@H]4COC[C@H]4O)cnc23)cn1 [Compound 88]	≥ 1	0.1 to 1 (≈ 0.0458 to 0.458 µg/mL)	< 20
Cc1ncc(-c2cc3c(=O)n([C@@H](C)CO)cnc3c(-c3cccnc3)n2)s1 [Compound 89]	≥ 1	≥ 1	< 20
Cn1cc(-c2nc(-c3ccc(Cl)cc3)cc3c(=O)n([C@H]4COC[C@H]4O)cnc23)cn1 [Compound 92]	0.1 to 1 (≈ 0.0424 to 0.424 µg/mL)	< 0.1	< 20
C[C@@H](CO)n1cnc2c(-c3cnn(C)c3)nc(-c3cnc(C(F)(F)F)nc3)cc2c1=O [Compound 95]	≥ 1	≥ 1	< 20
Cn1cc(-c2nc(-c3cnc(C(F)(F)F)nc3)cc3c(=O)n(CC(C)(C)O)cnc23)cn1 [Compound 99]	≥ 1	0.1 to 1 (≈ 0.0445 to 0.445 µg/mL)	< 20
CC(C)(O)Cn1cnc2c(-c3cnsc3)nc(-c3ccc(C(F)(F)F)cn3)cc2c1=O [Compound 101, 3-(2-hydroxy-2-methylpropyl)-8-(isothiazol-4-yl)-6-(5-(trifluoromethyl)pyridin-2-yl)pyrido[3,4-d]pyrimidin-4(3H)-one]	0.1 to 1 (≈ 0.0447 to 0.447 µg/mL)	< 0.1	< 20
C[C@@H](CO)n1cnc2c(-c3cnsc3)nc(-c3ccc(C(F)(F)F)cn3)cc2c1=O [Compound 102, (S)-3-(1-hydroxypropan-2-y1)-8-(isothiazol-4-yl)-6-(5-(trifluoromethyl)pyridin-2-yl)pyrido[3,4-d]pyrimidin-4(3H)-one]	0.1 to 1 (≈ 0.0433 to 0.433 µg/mL)	0.1 to 1 (≈ 0.0433 to 0.433 µg/mL)	< 20
Cn1cc(-c2nc(-c3ccc(C(F)(F)F)cn3)cc3c(=O)n(CC(C)(C)O)cnc23)cn1 [Compound 103, 3-(2-hydroxy-2-methylpropyl)-8-(1-methyl-1H-pyrazol-4-yl)-6-(5-(trifluoromethyl)pyridin-2-yl)pyrido[3,4-d]pyrimidin-4(3H)-one]	0.1 to 1 (≈ 0.0444 to 0.444 µg/mL)	< 0.1	< 20
O=c1c2cc(-c3ccc(C(F)(F)F)cn3)nc(-c3cccnc3)c2ncn1C[C@H](O)C(F)(F)F [Compound 104, (S)-8-(pyridin-3-yl)-3-(3,3,3-trifluoro-2-hydroxypropyl)-6-(5-(trifluoromethyl)pyridin-2-yl)pyrido[3,4-d]pyrimidin-4(3H)-one]	≥ 1	≥ 1	< 20
CC(C)(O)Cn1cnc2c(-c3cccnc3)nc(-c3ccc(C(F)(F)F)cn3)cc2c1=O [Compound 105]	≥ 1	≥ 1	< 20
C[C@H](O)Cn1cnc2c(-c3cnn(C)c3)nc(-c3ccc(C(F)(F)F)nc3)cc2c1=O [Compound 109, (S)-3-(2-hydroxypropyl)-8-(1-methyl-1H-pyrazol-4-yl)-6-(6-(trifluoromethyl)pyridin-3-yl)pyrido[3,4-d]pyrimidin-4(3H)-one]	0.1 to 1 (≈ 0.043 to 0.43 µg/mL)	0.1 to 1 (≈ 0.043 to 0.43 µg/mL)	< 20
Cn1cc(-c2nc(-c3ccc(C(F)(F)F)nc3)cc3c(=O)n(C[C@@H](O)C(F)(F)F)cnc23)cn1 [Compound 110, (R)-8-(1-methyl-1H-pyrazol-4-yl)-3-(3,3,3-trifluoro-2-hydroxypropyl)-6-(6-(trifluoromethyl)pyridin-3-yl)pyrido[3,4-d]pyrimidin-4(3H)-one]	< 0.1	< 0.1	< 20
Cn1cc(-c2nc(-c3ccc(C(F)(F)F)nc3)cc3c(=O)n(C[C@H](O)C(F)(F)F)cnc23)cn1 [Compound 111, (S)-8-(1-methyl-1H-pyrazol-4-yl)-3-(3,3,3-trifluoro-2-hydroxypropyl)-6-(6-(trifluoromethyl)pyridin-3-y1)pyrido[3,4-d]pyrimidin-4(3H)-one]	0.1 to 1 (≈ 0.0484 to 0.484 µg/mL)	< 0.1	< 20
C[C@@H](O)Cn1cnc2c(-c3cccnc3)nc(-c3ccc(C(F)(F)F)nc3)cc2c1=O [Compound 112, (R)-3-(2-hydroxypropyl)-8-(pyridin-3-yl)-6-(6-(trifluoromethyl)pyridin-3-yl)pyrido[3,4-d]pyrimidin-4(3H)-one]	≥ 1	≥ 1	< 20
Cn1cc(-c2nc(-c3ccc(C(F)(F)F)nc3)cc3c(=O)n([C@H]4COC[C@@H]4O)cnc23)cn1 [Compound 114, 3-((3S,4R)-4-hydroxytetrahydrofuran-3-yl)-8-(1-methyl-1H-pyrazol-4-yl)-6-(6-(trifluoromethyl)pyridin-3-yl)pyrido[3,4-d]pyrimidin-4(3H)-one]	0.1 to 1 (≈ 0.0458 to 0.458 µg/mL)	0.1 to 1 (≈ 0.0458 to 0.458 µg/mL)	< 20
Cn1cc(-c2nc(-c3ccc(C(F)(F)F)nc3)cc3c(=O)n([C@@H]4COC[C@H]4O)cnc23)cn1 [Compound 115, 3-((3R,4S)-4-hydroxytetrahydrofuran-3-y1)-8-(1-methyl-1H-pyrazol-4-y1)-6-(6-(trifluoromethyl)pyridin-3-yl)pyrido[3,4-d]pyrimidin-4(3H)-one]	0.1 to 1 (≈ 0.0458 to 0.458 µg/mL)	0.1 to 1 (≈ 0.0458 to 0.458 µg/mL)	< 20
Cn1cc(-c2nc(-c3ccc(Cl)cc3)cc3c(=O)n([C@H]4COC[C@@H]4O)cnc23)cn1 [Compound 116]	0.1 to 1 (≈ 0.0424 to 0.424 µg/mL)	0.1 to 1 (≈ 0.0424 to 0.424 µg/mL)	< 20
O=c1c2cc(-c3ccc(C(F)(F)F)nc3)nc(-c3cccnc3)c2ncn1[C@H]1COC[C@@H]1O [Compound 117]	≥ 1	≥ 1	< 20
